From patent EP4678638A1, “NEW E3 UBIQUITIN LIGASE LIGAND, PROTEIN DEGRADATION AGENT AND USE THEREOF” (priority 2023, dated 2024) come the findings set out here.

The experiment addresses T1, human Cereblon WT GST-tagged protein (Homo sapiens, UniProt Q96SW2).
T1 construct: purchased CISBIO 64BDCRBNPEH
Description: CRBN binding, HTRF (CEREBLON BINDING kit). The settings on record: Table II-2, CRBN binding screening, HTRF; for inhibition at 0.5 µM: read-out: Inhibition rate (%) at 0.5µM; for inhibition at 2 µM: read-out: Inhibition rate (%) at 2 µM. On the procedure:
The CEREBLON BINDING kits (specification: 10,000 tests; product number: Catalog # 64BDCRBNPEH; CISBIO company) was used to determine the CRBN binding ability of the compounds to be tested through a HTRF method (homogeneous time-resolved fluorescence). The specific methods are as follows: • 1. […] Then, 2.5 µL of human Cereblon WT GST-tagged protein solution was added to each well. Finally, 5 µL of the thoroughly mixed Thalidomide-Re reagent and GST Eu antibody working solution were added to each of the aforementioned wells. […] The blank control wells were sequentially added with 2.5 µL of diluent #9 (1X) solution, 2.5 µL of binding buffer, and 5 µL of thoroughly mixed Thalidomide-Re reagent and GST Eu antibody working solution. • 4. After sealing and incubating the solutions in the aforementioned wells at room temperature for 3 hours, the […] at emission wavelengths of 620 nm and 665 nm were detected by the HTRF method using a Spark microplate reader (V3.1 SP1).
On the technique in general: TR-FRET usually uses a lanthanide donor and a delayed reading to cut background.

T1 sequence (Q96SW2 whole entry): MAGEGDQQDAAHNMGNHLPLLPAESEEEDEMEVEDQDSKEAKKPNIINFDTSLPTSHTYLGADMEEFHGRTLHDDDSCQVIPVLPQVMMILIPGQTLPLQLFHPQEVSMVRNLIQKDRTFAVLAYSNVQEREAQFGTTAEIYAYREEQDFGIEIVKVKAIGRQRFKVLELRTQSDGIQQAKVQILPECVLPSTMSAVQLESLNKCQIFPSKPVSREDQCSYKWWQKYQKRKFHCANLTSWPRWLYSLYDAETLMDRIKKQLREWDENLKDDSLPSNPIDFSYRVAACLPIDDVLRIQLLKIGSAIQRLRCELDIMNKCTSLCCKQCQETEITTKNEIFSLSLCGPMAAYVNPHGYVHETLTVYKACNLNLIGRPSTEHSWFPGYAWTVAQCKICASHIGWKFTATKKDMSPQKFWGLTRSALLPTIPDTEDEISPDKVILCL

The term inhibition denotes the share of the control response that was lost under treatment. Regarding `O=C1CCN(c2ccc(CCl)nc2)C(=O)N1` [GT-06984, 1-(6-(Chloromethyl)pyridin-3-yl)dihydropyrimidine-2,4(1H,3H)-dione], the inhibition at 0.5 µM was in the range of 30 to 40% and the inhibition at 2 µM was 60 to 80%.
For `CN(c1nccnc1CNc1nc(Nc2ccc(N3CCN(Cc4cc(C5CCC(=O)NC5=O)cnc4F)CC3)cc2)ncc1C(F)(F)F)S(C)(=O)=O` (centres unmarked) [GT-07397, N-(3-(((2-((4-(4-((5-(2,6-dioxopiperidin-3-yl)-2-fluoropyridin-3-yl)methyl)piperazin-1-yl)phenyl)amino)-5-(trifluoromethyl)pyrimidin-4-yl)amino)methyl)pyrazin-2-yl)-N-methylmethanesulfonamide], in that order: 30 to 40% and 60 to 80%.
The like results for `CN(c1nccnc1CNc1nc(Nc2ccc(N3CCN(Cc4ccc(C5CCC(=O)NC5=O)cc4)CC3)cc2)ncc1C(F)(F)F)S(C)(=O)=O` (centres unmarked) [GT-07399, N-(3-(((2-((4-(4-(4-(2,6-dioxopiperidin-3-yl)benzyl)piperazin-1-yl)phenyl)amino)-5-(trifluoromethyl)pyrimidin-4-yl)amino)methyl)pyrazin-2-yl)-N-methylmethanesulfonamide] were, in that order, 10 to 20% and 60 to 80%.
The like results for `CN(c1nccnc1CNc1nc(Nc2ccc(N3CCN(Cc4ccc(N5CCC(=O)NC5=O)cn4)CC3)cc2)ncc1C(F)(F)F)S(C)(=O)=O` [GT-07403, N-(3-(((2-((4-(4-((5-(2,4-dioxotetrahydropyrimidin-1(2H)-yl)pyridin-2-yl)methyl)piperazin-1-yl)phenyl)amino)-5-(trifluoromethyl)pyrimidin-4-yl)amino)methyl)pyrazin-2-yl)-N-methylmethanesulfonamide] were, in that order, 30 to 40% and 60 to 80%.
With `CC(=O)c1c(C)c2cnc(Nc3ccc(N4CCN(Cc5cncc(N6CCC(=O)NC6=O)c5)CC4)cn3)nc2n(C2CCCC2)c1=O` [GT-07482, 1-(5-((4-(6-((6-acetyl-8-cyclopentyl-5-methyl-7-oxo-7,8-dihydropyrido[2,3-d]pyrimidin-2-yl)amino)pyridin-3-yl)piperazin-1-yl)methyl)pyridin-3-yl)dihydropyrimidine-2,4(1H,3H)-dione], the inhibition at 0.5 µM lay within 20 to 30% and the inhibition at 2 µM lay within 80 to 100%.
As for `CC(=O)c1c(C)c2cnc(Nc3ccc(N4CCN(Cc5ccc(C6CCC(=O)NC6=O)cn5)CC4)cn3)nc2n(C2CCCC2)c1=O` (centres unmarked) [GT-07483, 3-(6-((4-(6-((6-acetyl-8-cyclopentyl-5-methyl-7-oxo-7,8-dihydropyrido[2,3-d]pyrimidin-2-yl)amino)pyridin-3-yl)piperazin-1-yl)methyl)pyridin-3-yl)piperidine-2,6-dione], the inhibition at 0.5 µM lay in the range of 53 to 60% and the inhibition at 2 µM was 80 to 100%.
Turning to `CC(=O)c1c(C)c2cnc(Nc3ccc(N4CCN(Cc5cncc(C6CCC(=O)NC6=O)c5)CC4)cn3)nc2n(C2CCCC2)c1=O` (centres unmarked) [GT-07485, 3-(5-((4-(6-((6-acetyl-8-cyclopentyl-5-methyl-7-oxo-7,8-dihydropyrido[2,3-d]pyrimidin-2-yl)amino)pyridin-3-yl)piperazin-1-yl)methyl)pyridin-3-yl)piperidine-2,6-dione], the inhibition at 0.5 µM was 53 to 60% and the inhibition at 2 µM was 80 to 100%.
With `COc1cc2nn(C3CCN(Cc4ccc(C5CCC(=O)NC5=O)cn4)CC3)cc2cc1NC(=O)c1cccc(C(F)(F)F)n1` (centres unmarked) [GT-07534, N-(2-(1-((5-(2,6-dioxopiperidin-3-yl)pyridin-2-yl)methyl)piperidin-4-yl)-6-methoxy-2H-indazol-5-yl)-6-(trifluoromethyl)picolinamide], the inhibition at 0.5 µM fell in the range of 10 to 20% and the inhibition at 2 µM was in the range of 53 to 60%.
For `COc1cc2nn(C3CCN(Cc4cncc(C5CCC(=O)NC5=O)c4)CC3)cc2cc1NC(=O)c1cccc(C(F)(F)F)n1` (centres unmarked) [GT-07536, N-(2-(1-((5-(2,6-dioxopiperidin-3-yl)pyridin-3-yl)methyl)piperidin-4-yl)-6-methoxy-2H-indazol-5-yl)-6-(trifluoromethyl)picolinamide], in that order: 10 to 20% and 53 to 60%.
In the case of `CC(C)(O)c1cc2nn(C3CCN(Cc4cncc(N5CCC(=O)NC5=O)c4)CC3)cc2cc1NC(=O)c1cccc(C(F)(F)F)n1` [GT-07540, N-(2-(1-((5-(2,4-dioxotetrahydropyrimidin-1(2H)-yl)pyridin-3-yl)methyl)piperidin-4-yl)-6-(2-hydroxypropan-2-yl)-2H-indazol-5-yl)-6-(trifluoromethyl)picolinamide], the inhibition at 0.5 µM lay in the range of 30 to 40% and the inhibition at 2 µM was in the range of 53 to 60%.
For `CC(C)(O)c1cc2nn(C3CCN(Cc4ccc(C5CCC(=O)NC5=O)cn4)CC3)cc2cc1NC(=O)c1cccc(C(F)(F)F)n1` (centres unmarked) [GT-07541, N-(2-(1-((5-(2,6-dioxopiperidin-3-yl)pyridin-2-yl)methyl)piperidin-4-yl)-6-(2-hydroxypropan-2-yl)-2H-indazol-5-yl)-6-(trifluoromethyl)picolinamide], in that order: 40 to 53% and 60 to 80%.
For `COc1cc2nn(C3CCN(Cc4cc(C5CCC(=O)NC5=O)cnc4F)CC3)cc2cc1NC(=O)c1cccc(C(F)(F)F)c1` (centres unmarked) [GT-07547, N-(2-(1-((5-(2,6-dioxopiperidin-3-yl)-2-fluoropyridin-3-yl)methyl)piperidin-4-yl)-6-methoxy-2H-indazol-5-yl)-3-(trifluoromethyl)benzamide], in that order: 40 to 53% and 80 to 100%.
As for `CN(C)C(=O)c1cc2cnc(Nc3ccc(N4CCN(Cc5cc(C6CCC(=O)NC6=O)cnc5F)CC4)cn3)nc2n1C1CCCC1` (centres unmarked) [GT-07563, 7-cyclopentyl-2-((5-(4-((5-(2,6-dioxopiperidin-3-yl)-2-fluoropyridin-3-yl)methyl)piperazin-1-yl)pyridin-2-yl)amino)-N,N-dimethyl-7H-pyrrolo[2,3-d]pyrimidine-6-carboxamide], the inhibition at 0.5 µM lay in the range of 20 to 30% and the inhibition at 2 µM lay in the range of 60 to 80%.
The like results for `CC(=O)c1c(C)c2cnc(Nc3ccc(N4CCN(Cc5cc(C6CCC(=O)NC6=O)cnc5F)CC4)cn3)nc2n(C2CCCC2)c1=O` (centres unmarked) [GT-07591, 3-(5-((4-(6-((6-acetyl-8-cyclopentyl-5-methyl-7-oxo-7,8-dihydropyrido[2,3-d]pyrimidin-2-yl)amino)pyridin-3-yl)piperazin-1-yl)methyl)-6-fluoropyridin-3-yl)piperidine-2,6-dione] were, in that order, 20 to 30% and 80 to 100%.
Regarding `CC(C)(O)c1cc2nc(C3CCN(Cc4cc(C5CCC(=O)NC5=O)cnc4F)CC3)sc2cc1NC(=O)c1cccc(C(F)(F)F)n1` (centres unmarked) [GT-07621, N-(2-(1-((5-(2,6-dioxopiperidin-3-yl)-2-fluoropyridin-3-yl)methyl)piperidin-4-yl)-5-(2-hydroxypropan-2-yl)benzo[d]thiazol-6-yl)-6-(trifluoromethyl)picolinamide], the inhibition at 0.5 µM lay in the range of 53 to 60% and the inhibition at 2 µM lay within 60 to 80%.
For `CC(C)(O)c1cc2nc(C3CCN(Cc4cc(C5CCC(=O)NC5=O)cnc4F)CC3)oc2cc1NC(=O)c1cccc(C(F)(F)F)n1` (centres unmarked) [GT-07629, N-(2-(1-((5-(2,6-dioxopiperidin-3-yl)-2-fluoropyridin-3-yl)methyl)piperidin-4-yl)-5-(2-hydroxypropan-2-yl)benzo[d]oxazol-6-yl)-6-(trifluoromethyl)picolinamide], the inhibition at 0.5 µM lay in the range of 60 to 80% and the inhibition at 2 µM is 80 to 100%.
Regarding `CC(C)(O)c1cc2nc(C3CCN(Cc4cncc(C5CCC(=O)NC5=O)c4)CC3)oc2cc1NC(=O)c1cccc(C(F)(F)F)n1` (centres unmarked) [GT-07630, N-(2-(1-((5-(2,6-dioxopiperidin-3-yl)pyridin-3-yl)methyl)piperidin-4-yl)-5-(2-hydroxypropan-2-yl)benzo[d]oxazol-6-yl)-6-(trifluoromethyl)picolinamide], the inhibition at 0.5 µM fell in the range of 20 to 30% and the inhibition at 2 µM was in the range of 60 to 80%.
On to `CNC(=O)c1ccccc1Nc1cc(Nc2ccc(N3CCC(N(C)Cc4cc(C5CCC(=O)NC5=O)cnc4F)CC3)cc2OC)ncc1C(F)(F)F` (centres unmarked) [GT-07656, 2-((2-((4-(4-(((5-(2,6-dioxopiperidin-3-yl)-2-fluoropyridin-3-yl)methyl)(methyl)amino)piperidin-1-yl)-2-methoxyphenyl)amino)-5-(trifluoromethyl)pyridin-4-yl)amino)-N-methylbenzamide], for which the inhibition at 0.5 µM was in the range of 20 to 30% and the inhibition at 2 µM fell in the range of 60 to 80%.
As for `CNC(=O)c1ccccc1Nc1cc(Nc2cc(C)c(C3CCN(Cc4ccc(N5CCC(=O)NC5=O)cc4)CC3)cc2OC(C)C)ncc1C(F)(F)F` [GT-07667, 2-((2-((4-(1-(4-(2,4-dioxotetrahydropyrimidin-1(2H)-yl)benzyl)piperidin-4-yl)-2-isopropoxy-5-methylphenyl)amino)-5-(trifluoromethyl)pyridin-4-yl)amino)-N-methylbenzamide], the inhibition at 0.5 µM was 20 to 30% and the inhibition at 2 µM was in the range of 53 to 60%.
